Experimental data as given in PMC8112869, “Therapeutic inhibition of keratinocyte TRPV3 sensory channel by local anesthetic dyclonine” (eLife, 2021).

Molecular target: T1, TRPV3 (Mus musculus, UniProt Q8K424)
T1 construct: expressed in transfected cells; host or cells: HEK 293T
T1 sequence (Q8K424 1-791): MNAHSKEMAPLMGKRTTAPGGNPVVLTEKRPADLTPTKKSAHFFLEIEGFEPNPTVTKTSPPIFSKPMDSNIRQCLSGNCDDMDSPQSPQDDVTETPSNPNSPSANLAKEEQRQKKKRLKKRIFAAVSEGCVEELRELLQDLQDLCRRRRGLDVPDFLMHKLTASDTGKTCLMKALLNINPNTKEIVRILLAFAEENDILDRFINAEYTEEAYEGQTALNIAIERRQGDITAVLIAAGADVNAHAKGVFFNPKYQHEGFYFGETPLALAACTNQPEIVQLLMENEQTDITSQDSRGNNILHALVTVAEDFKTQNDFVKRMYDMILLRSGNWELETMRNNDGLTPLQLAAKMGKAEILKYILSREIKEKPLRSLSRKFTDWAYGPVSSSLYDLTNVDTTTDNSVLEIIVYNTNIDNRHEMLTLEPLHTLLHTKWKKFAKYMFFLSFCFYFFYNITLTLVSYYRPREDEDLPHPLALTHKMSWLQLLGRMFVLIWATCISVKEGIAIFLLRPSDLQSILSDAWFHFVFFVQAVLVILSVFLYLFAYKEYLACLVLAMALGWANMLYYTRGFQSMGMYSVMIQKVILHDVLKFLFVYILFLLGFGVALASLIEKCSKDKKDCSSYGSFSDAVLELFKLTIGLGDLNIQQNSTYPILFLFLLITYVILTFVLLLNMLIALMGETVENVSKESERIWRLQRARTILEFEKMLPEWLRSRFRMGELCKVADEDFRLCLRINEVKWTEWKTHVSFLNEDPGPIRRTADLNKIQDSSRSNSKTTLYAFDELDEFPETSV
Assay: Heat-activated TRPV3 currents (infrared laser temperature jump) in HEK 293T cells
Type: cell-based
Description: Conventional whole-cell and excised patch-clamp recording methods were used. For the recombinant expressing system, green fluorescent EGFP was used as a surface marker for gene expression. Recording pipettes were pulled from borosilicate glass capillaries (World Precision Instruments) and fire-polished to a resistance between 2 and 4 MΩ when filled with internal solution containing (in mM) 140 CsCl, 2.0 MgCl2, 5 EGTA, and 10 HEPES, pH 7.4 (adjusted with CsOH). Bath solution contained (in mM): 140 NaCl, 5 KCl, 3 EGTA, and 10 HEPES, pH 7.4 adjusted with NaOH. […] For a subset of recordings, currents were amplified using an Axopatch 200B amplifier (Molecular Devices, Sunnyvale, CA) and recorded through a BNC-2090/MIO acquisition system (National Instruments, Austin, TX) using QStudio developed by Dr. Feng Qin at State University of New York at Buffalo. […] As determined by the conductance tests, the solution around a patch under study was fully controlled by the application of a flow rate of 100 μl/min or greater. […]
Constant temperature steps were generated by irradiating the tip of an open pipette and using the current of the electrode as the readout for feedback control. […]

## CCCCOc1ccc(C(=O)CCN2CCCCC2)cc1 [dyclonine]
  Hill coefficient nH: 1.9 ± 0.54
